Data from PMC8277133, “Os(II)-Bridged Polyarginine Conjugates: The Additive Effects of Peptides in Promoting or Preventing Permeation in Cells and Multicellular Tumor Spheroids” (Inorganic Chemistry, 2021).
Where a SMILES comes first, the peptide text is derived from it. [ ]: non-standard residue; d: D form. The star is where a group is joined. X1 = O=C(c1ccc(-c2cc(-c3ccccn3)nc(-c3ccccn3)c2)cc1)*; Ahx = NCCCCCC(=O)O

How the values were obtained:
A549 cells [1] = experiment: Confocal laser scanning microscopy uptake study in live A549 cells; format: cell-based; details: CLSM; for Cellular uptake / membrane permeation: live A549 cells, 24 h, 37 °C
Method: (§1) Two cell lines were studied: an adherent mammalian cell line, Chinese hamster ovarian (CHO–K1), and a lung carcinoma cancer cell line (A549). Dulbecco’s modified Eagle’s medium (DMEM)/Hams F-12 was used for CHO cells and DMEM for A549 cells. Both media were supplemented with 10% FBS and 1% penicillin–streptomycin. The cells were grown at 37 °C with 5% CO2 and sub-cultured at 90% confluency.
(§2) Uptake studies were carried out for A549 and CHO cell lines. Cells were seeded at 1.5 × 10^5 cells in 35 mm glass-bottom culture dishes (Ibidi, Germany). Cells were allowed to grow for 24 h at 37 °C with 5% CO2. […] The dye/media solution was removed, and cells were washed twice with supplemented phosphate-buffered saline (PBS, 1.1 mM MgCl2 and 0.9 mM CaCl2). Cells were directly imaged using a Leica TSP DMi8 confocal microscope (63× oil immersion objective lens unless stated otherwise) with a heated stage at 37 °C.
(§3) [Os-(Rn)2]^x+ (n = 4 and 8; x = 10^+ and 18^+) was excited using a 490 nm white light laser, and the emission range was set to be between 650 and 800 nm. DRAQ7, a nuclear staining dye, was added (3 μM) to distinguish intact live cells from permeabilized/dead cells. The 633 nm laser was used to excite DRAQ7, and emission was collected between 635 and 750 nm. For co-localization studies, MitoTracker Deep Red (100 nM) and LysoTracker Green (50 nM) were used to selectively stain mitochondria and lysosomes, respectively. MitoTracker Deep Red was excited at 644 nm and emission was collected between 655 and 720 nm, and LysoTracker Green was excited at 504 nm and emission was collected at 511 nm.

CHO cells [2] = experiment: Confocal laser scanning microscopy uptake study in live CHO cells; format: cell-based, Chinese hamster; details: CLSM; for Cellular uptake / membrane permeation: live CHO cells, 24 h, 37 °C
Method: as §1, §2, §3

HPAC spheroids [3] = experiment: Confocal imaging of penetration into live HPAC multicellular tumor spheroids; format: cell-based, human; details: for Spheroid penetration / accumulation: 100 μM, 48 h, confocal microscopy, no permeant
Method: The human pancreatic cancer cell line (HPAC) was cultured in Gibco Roswell Park Memorial Institute medium supplemented with 5% FBS at 37 °C with 5% CO2. HPAC cells were seeded at 2.5 × 10^3 cells/well of 96-well round-bottom plates pre-coated with poly-Hema (poly-2-hydroxyethyl methacrylate, Sigma). Cells were allowed to be compact and form 3D spheroid structures after 72 h.
Spheroids were treated with [Os-(R4)2]^10+ at 30 μM for 24 h and 100 μM for 24 and 48 h. Control spheroids were treated with the parent complex [Os(tpybenzCOOH)2]^2+ and [Os-(R8)2]^18+ at 100 μM for 48 h. Non-treated spheroids were also prepared as a negative control. Spheroids were co-stained with DAPI at 10 μM for 90 min. Each spheroid was collected individually and embedded in collagen in eight-well chamber slides, incubated for 90 min, and observed under confocal microscopy.
For imaging, HPAC spheroids were plated in collagen-treated eight-well chamber slides. HPAC spheroids were directly imaged from the eight-well chamber using a Leica TSP DMi8 confocal microscope (10× dry and 40× oil immersion objective). Z-scanning was used to acquire images across the z-axis of the spheroid sample. On average, 45–50 images were acquired at approximately 5 μm apart. 3D Z-stack images were used for spheroid reconstructions and 2D projection images are also reported. The Os(II) parent complex and bioconjugates were excited using a 490 nm white light laser, and the emission range was set to be between 650 and 800 nm (a false red color was used for the Os(II) channel). DAPI was excited at 405 nm, and emission was collected between 423 and 580 nm.

cell membrane = details: parent complex without peptide; as reported previously; cited from earlier work
Method: Uptake of the Os(II) bis-octaarginine conjugate was studied in live A549 lung carcinoma and a non-cancerous CHO cell line. […] The conjugate remained as impermeable to the cell membrane as the parent Os(II) complex at 30 μM/24 h and 100 μM/24 h (Figure S12).

A549 cells [4] = experiment: DRAQ7 co-staining for damaged/dead cells, A549; format: cell-based
Method: (§4) Uptake studies were carried out for A549 and CHO cell lines. Cells were seeded at 1.5 × 10^5 cells in 35 mm glass-bottom culture dishes (Ibidi, Germany). Cells were allowed to grow for 24 h at 37 °C with 5% CO2. The growth medium was removed, and a specific concentration of [Os-(Rn)2]^x+ (n = 4 and 8; x = 10^+ and 18^+) was added and allowed to incubate for 24 and 48 h at 37 °C with 5% CO2 in the dark. The dye/media solution was removed, and cells were washed twice with supplemented phosphate-buffered saline (PBS, 1.1 mM MgCl2 and 0.9 mM CaCl2). Cells were directly imaged using a Leica TSP DMi8 confocal microscope (63× oil immersion objective lens unless stated otherwise) with a heated stage at 37 °C.
as §3

CHO cells [5] = experiment: DRAQ7 co-staining for damaged/dead cells, CHO; format: cell-based, Chinese hamster; details: 30 μM, 24 h
Method: as §4, §3

A549 cells [6] = experiment: Phototoxicity under continuous 490 nm irradiation with DRAQ7; format: cell-based; details: A549 cells pretreated 30 μM/24 h, DRAQ7, continuous 490 nm irradiation 0.84 μW/cm^2, 3 h
Method: DRAQ7 was added to live A549 cells treated with [Os-(R4)2]^10+ (30 μM/24 h). A group of cells were selected for continuous irradiation using 490 nm excitation (0.84 μW/cm^2). Emission was collected between 650 and 800 nm for [Os-(R4)2]^10+. The 633 nm laser was used to excite DRAQ7, and emission was collected between 635 and 750 nm. This was repeated for an untreated control sample exposed to continuous irradiation and stained with DRAQ7.

HPAC spheroids [7] = experiment: 3D spheroid viability, Alamar Blue; format: cell-based, human; details: 100 μM, 24 and 48 h, relative to untreated controls, n=2
Method: The 3D spheroid viability was evaluated using Alamar Blue. Briefly, 2.5 × 10^3 cells were seeded in each well of a 96-well round-bottom plate pre-coated with poly-Hema. The cells were allowed to grow and form spheroids for 72 h. The spheroids were then treated with [Os-(R4)2]^10+ at 100 μM for 24 and 48 h. The Alamar Blue reagent at a concentration of 10% was added to each well and incubated for 5 h at 37 °C. Fluorescence was measured at 535/590 excitation/emission wavelengths on a plate reader (Biotek) using Gen4 software. Background fluorescence was measured by using a blank consisting of medium only. Percentage viability was calculated relative to untreated controls.

Compound	Cellular uptake / membrane permeation (A549 cells [1]; 100 μM)	Cellular uptake / membrane permeation (CHO cells [2]; 100 μM)	Spheroid penetration / accumulation (HPAC spheroids [3])	Cell membrane permeability (cell membrane)	Cell permeation at 4 °C (A549 cells [1]; A549 cells, 4 °C, 30 μM/24 h)	Cellular uptake / membrane permeation (A549 cells [1]; 30 μM, dark, exc 490 nm, em 650-800 nm)	Cell permeation (CHO cells [2]; CHO cells, 30 μM/24 h)	Cellular uptake / membrane permeation (CHO cells [2]; 30 μM, dark)	Cell viability by DRAQ7 co-staining (A549 cells [4]; 30 μM, 24 h and 48 h)	Cytotoxicity by DRAQ7 co-staining (A549 cells [4]; 100 μM, 48 h)	Cell death by DRAQ7 co-staining (A549 cells [4]; 100 μM/24 h)	Cellular damage by DRAQ7 co-staining (CHO cells [5])	Photo-induced toxicity (A549 cells [6])	Staining at the center of the spheroid, at 72 ± 5 μm (HPAC spheroids [3]; 30 μM/24 h)	Spheroid penetration (HPAC spheroids [3]; 30 μM/24 h, 3D reconstruction depth coding)	Spheroid penetration (HPAC spheroids [3]; 100 μM/24 h)	Spheroid viability (HPAC spheroids [7])
O=C(O)c1ccc(-c2cc(-c3ccccn3)nc(-c3ccccn3)c2)cc1.O=C(O)c1ccc(-c2cc(-c3ccccn3)nc(-c3ccccn3)c2)cc1.[Os+2] [[Os(tpybenzCOOH)2]^2+, Os(II) [bis-(4′-(4-carboxyphenyl)-2,2′:6′,2″-terpyridine)]]	completely impermeable	completely impermeable	no spheroid penetration or accumulation was observed	cell membrane impermeable													
N=C(N)NCCC[C@@H](NC(=O)[C@@H](CCCNC(=N)N)NC(=O)[C@@H](CCCNC(=N)N)NC(=O)[C@@H](CCCNC(=N)N)NC(=O)CCCCCNC(=O)c1ccc(-c2cc(-c3ccccn3)nc(-c3ccccn3)c2)cc1)C(N)=O [[Os-(R4)2]^10+] ({X1-Ahx}-[dR][dR][dR][dR]-NH2)			throughout cell layers and deep into the spheroid core		inhibited	rapidly and efficiently internalized	inhibited	rapidly and efficiently internalized	remained viable	modest cytotoxic effects	no cell death was induced	entry of DRAQ7 (blue) in several cell nuclei	non-photocytotoxic	not observed	spheroid penetration was evident	extensive probe penetration and distribution to the core of the spheroid	no evidence of toxicity
